Data reported in patent publication US20080027063A1, “IMIDAZOPYRAZINES AS PROTEIN KINASE INHIBITORS” (Schering Corporation, priority 2006, published 2008).

Tested on: CHK1
Assay: CHK1 SPA Assay
Type: biochemical
Details: recombinant His-CHK1, CDC25C biotinylated peptide, 1 μM ATP, 2 hours, room temperature
Experimental: CHK1 SPA Assay An in vitro assay was developed that utilizes recombinant His-CHK1 expressed in the baculovirus expression system as an enzyme source and a biotinylated peptide based on CDC25C as substrate (biotin-[…]). Materials and Reagents: 1) CDC25C […]-term Biotinylated peptide substrate (25 mg), stored at -20° C., Custom Synthesis by Research Genetics: biotin-[…] 2) His-CHK1 In House lot P976, 235 μg/mL, stored at -80° C. 3) D-PBS (without CaCl and MgCl): GIBCO, Cat.# 14190-144 4) SPA beads: Amersham, Cat.# SPQ0032: 500 mg/vial • Add 10 mls of D-PBS to 500 mg of SPA beads to make a working concentration of 50 mg/ml. Store at 4° C. Use within 2 week after hydration. 5) 96-Well White Microplate with Bonded GF/B filter: Packard, Cat.# 6005177 6) Top seal-A 96 well Adhesive Film: Perkin Elmer, Cat.# 6005185 7) 96-well Non-Binding White Polystyrene Plate: Corning, Cat. # 6005177 8) MgCl2: Sigma, Cat.# M-8266 9) DTT: Promega, Cat.# V3155 10) ATP, stored at 4° C.: Sigma, Cat.# A-5394 11) γ^33P-ATP, 1000-3000 Ci/mMol: Amersham, Cat.# AH9968 12) NaCl: Fisher Scientific, Cat.# BP358-212 13) H3PO4 85% Fisher, Cat.#A242-500 14) Tris-HCL pH 8.0: Bio-Whittaker, Cat. # 16-[…] 15) Staurosporine, 100 ug: CALBIOCHEM. Cat. # 569397 16) Hypure Cell Culture Grade Water, 500 mL: HyClone, Cat.# SH30529.02 Reaction Mixtures: 1) Kinase Buffer: 50 mM Tris pH 8.0; 10 mM MgCl2; 1 mM DTT 2) His-CHK1, In House Lot P976, MW 30 KDa, stored at -80° C. 6 nM is required to yield positive controls of 5,000 CPM. For 1 plate (100 rxn): dilute 8 μL of 235 ug/mL (7.83 uM) stock in 2 mL Kinase Buffer. This makes a 31 nM mixture. Add 20 μL/well. This makes a final reaction concentration of 6 nM. 3) CDC25C Biotinylated peptide. Dilute CDC25C to 1 mg/mL (385 uM) stock and store at -20° C. For 1 plate (100 rxn): dilute 10 μL of 1 mg/mL peptide stock in 2 ml Kinase Buffer. This gives a 1.925 uM mix. Add 20 μL/rxn. This makes a final reaction concentration of 385 nM 4) ATP Mix. For 1 plate (100 rxn): dilute 10 μL of 1 mM ATP (cold) stock and 2 μL fresh P33-ATP (20 μCi) in 5 ml Kinase Buffer. This gives a 2 uM ATP (cold) solution; add 50 μl/well to start the reaction. Final volume is 100 μl/rxn so the final reaction concentrations will be 1 uM ATP (cold) and 0.2 μCi/reaction. 5) Stop Solution: For 1 plate add: To 10 mL Wash Buffer 2 (2M NaCl 1% H3PO4): 1 mL SPA bead slurry (50 mg); Add 100 μL/well 6) Wash buffer 1: 2 M NaCl 7) Wash buffer 2: 2 M NaCl, 1% H3PO4 Assay Procedure: [table] 1) Dilute compounds to desired concentrations in water/10% DMSO-this will give a final DMSO concentration of 1% in the reaction. Dispense 10 μl/rxn to appropriate wells. Add 10 μL 10% DMSO to positive (CHK1+CDC25C+ATP) and negative (CHK1+ATP only) control wells. […]

Structure (SMILES)	IC50 [nM]
Nc1ncc(-c2cc3ccccc3s2)n2cc(C3CCCNC3)nc12 (stereo not shown)	187
Cc1ccc(-c2cnc(N)c3nc(C4CCCNC4)cn23)s1 (stereo not shown)	216
Nc1ncc(-c2cc(-c3ccc(Cl)cc3)cs2)n2cc([C@H]3CCCNC3)nc12	84
Nc1ncc(-c2cc(-c3ccccc3)cs2)n2cc([C@H]3CCCNC3)nc12	139
